Test results as given in ChEMBL document CHEMBL5543121, “Drug Repurposing of ACT001 to Discover Novel Promising Sulfide Prodrugs with Improved Safety and Potent Activity for Neutrophil-Mediated Antifungal Immunotherapy” (J Med Chem, 2024).
Active and inactive are the calls of the source. The calls are words filed in the database; no cut-off is given here.

What was measured:
[1] = Inhibition of fungal curdlan induced PD-L1 expression in mouse neutrophils at 40 uM relative to control; format: functional, Neutrophil; details: for inhibition at 40 µM: Mus musculus, Neutrophil; for inhibition (INH): 40 µM
[2] = (§1) Cytotoxicity against mouse neutrophils assessed as cell viability at 40 uM relative to control; format: toxicity, cell-based, Neutrophil; details: mouse neutrophils, read-out: Activity
Neutrophil = experiment: as §1; format: toxicity, cell-based; details: neutrophil, 40 µM
[3] = molecular target: Signal transducer and activator of transcription 3 (Mus musculus) (UniProt P42227); experiment: Binding affinity to STAT3 in mouse bone marrow neutrophils at 20 uM by silver staining based pulldown assay; format: cell-based; details: Neutrophil
[4] = molecular target: Signal transducer and activator of transcription 3 (Mus musculus) (UniProt P42227); experiment: Binding affinity to STAT3 in mouse bone marrow neutrophils at 20 uM by pulldown based Western blot analysis; format: cell-based; details: Neutrophil
Candida albicans = experiment: Antifungal activity against Candida albicans SC5314 assessed as inhibition of fungal growth measured every 3 hrs for 24 hrs by absorbance based analysis; format: functional, organism-based; details: dose 0.25-128 µg/ml

Chain of Signal transducer and activator of transcription 3 (Mus musculus) (P42227 whole entry): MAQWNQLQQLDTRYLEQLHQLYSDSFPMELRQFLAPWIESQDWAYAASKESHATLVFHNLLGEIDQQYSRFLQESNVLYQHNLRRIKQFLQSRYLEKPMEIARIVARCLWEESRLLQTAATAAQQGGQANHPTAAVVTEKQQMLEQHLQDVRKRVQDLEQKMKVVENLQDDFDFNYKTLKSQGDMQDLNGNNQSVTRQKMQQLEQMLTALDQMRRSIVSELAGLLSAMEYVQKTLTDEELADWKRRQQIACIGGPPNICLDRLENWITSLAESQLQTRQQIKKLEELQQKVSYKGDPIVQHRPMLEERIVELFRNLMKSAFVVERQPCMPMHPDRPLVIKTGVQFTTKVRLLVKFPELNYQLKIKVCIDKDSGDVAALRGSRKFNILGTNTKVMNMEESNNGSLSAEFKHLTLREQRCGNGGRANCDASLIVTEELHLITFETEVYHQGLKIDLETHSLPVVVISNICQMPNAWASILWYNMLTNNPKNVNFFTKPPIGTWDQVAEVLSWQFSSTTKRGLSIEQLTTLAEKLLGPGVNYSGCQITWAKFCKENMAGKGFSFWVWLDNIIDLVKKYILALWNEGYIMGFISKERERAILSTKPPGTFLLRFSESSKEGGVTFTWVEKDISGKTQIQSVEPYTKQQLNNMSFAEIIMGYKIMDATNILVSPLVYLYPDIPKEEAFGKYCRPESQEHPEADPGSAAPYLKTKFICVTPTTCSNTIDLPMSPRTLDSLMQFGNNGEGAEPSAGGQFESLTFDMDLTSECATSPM

SMILES	inhibition at 40 µM [1]	viability at 40 µM [2]	further results
C[C@@]1(O)CC[C@]23O[C@@]2(C)CC[C@@H]2[C@H](OC(=O)[C@H]2CS(=O)(=O)c2ccc(Cl)c(Cl)c2)[C@@H]13	72.7%	65.2%	–
C[C@@]1(O)CC[C@]23O[C@@]2(C)CC[C@@H]2[C@H](OC(=O)[C@H]2CS(=O)(=O)c2ncccn2)[C@@H]13	85%	55.5%	–
C[C@@]1(O)CC[C@]23O[C@@]2(C)CC[C@@H]2[C@H](OC(=O)[C@H]2C[S+]([O-])c2ccc(Cl)cc2Cl)[C@@H]13 (stereo in doubt; 23b)	–	–	inhibition (INH) [1]: 52.64%; Activity (Neutrophil): 65.45%
C=C1C(=O)O[C@H]2[C@H]1CCC(C)=C1CC[C@@](C)(OC(=O)CCCc3cn(CCOCCOCCOCCNC(=O)CCCC[C@H]4SC[C@H]5NC(=O)N[C@H]54)nn3)[C@@H]12	–	–	Activity [3]: Active; Activity [4]: Active
CC1=C2CC[C@@](C)(O)[C@@H]2[C@H]2OC(=O)[C@@H](C[S+]([O-])c3ccc(Cl)cc3Cl)[C@@H]2CC1 (stereo in doubt; 22b)	–	–	inhibition (INH) [1]: 47.66%; Activity (Neutrophil): 21.1%
OC(Cn1cncn1)(Cn1cncn1)c1ccc(F)cc1F	–	–	Activity (Candida albicans): Dose-Dependent Effect
CC1=C2CC[C@@](C)(O)[C@@H]2[C@H]2OC(=O)[C@@H](CSc3ccc(Cl)cc3Cl)[C@@H]2CC1	52.6%	20.8%	–
CC1=C2CC[C@@](C)(O)[C@@H]2[C@H]2OC(=O)[C@@H](CSc3c(Cl)cccc3Cl)[C@@H]2CC1	41.6%	57.5%	–
C[C@@]1(O)CC[C@]23O[C@@]2(C)CC[C@@H]2[C@H](OC(=O)[C@H]2CS(=O)(=O)C2CCCCC2)[C@@H]13	65.3%	76.2%	–
C[C@@]1(O)CC[C@]23O[C@@]2(C)CC[C@@H]2[C@H](OC(=O)[C@H]2CS(=O)(=O)c2ccncc2)[C@@H]13	65.4%	79.4%	–
C[C@@]1(O)CC[C@]23O[C@@]2(C)CC[C@@H]2[C@H](OC(=O)[C@H]2CS(=O)(=O)c2ccc(Cl)cc2Cl)[C@@H]13	78.8%	74.9%	–
CC1=C2CC[C@@](C)(O)[C@@H]2[C@H]2OC(=O)[C@@H](CSc3ccncc3)[C@@H]2CC1	72.5%	57.2%	–
CC1=C2CC[C@@](C)(O)[C@@H]2[C@H]2OC(=O)[C@@H](CSc3ccc(F)cc3)[C@@H]2CC1	45.6%	74.6%	–
CC1=C2CC[C@@](C)(O)[C@@H]2[C@H]2OC(=O)[C@@H](CSc3ccc(C)cc3)[C@@H]2CC1	34.8%	70.6%	–
C[C@@]1(O)CC[C@]23O[C@@]2(C)CC[C@@H]2[C@H](OC(=O)[C@H]2C[S+]([O-])c2ccc(Cl)cc2Cl)[C@@H]13 (stereo in doubt; 23a)	61.1%	59.2%	–
